Results reported in article PMC12266748, “A Xanthine Derivative With Novel Heat Shock Protein 90‐Alpha Inhibitory and Senolytic Properties” (Aging Cell, 2025).

Tested on: p16-3MR mice
Assay: Pilot study in aged p16-3MR mice (safety, bioluminescence, ear biopsy markers, cytokines)
Format: in vivo
Method: Sections were prepared from organs and ear biopsies from snap‐frozen tissues and mounted on SuperFrost Plus slides (VWR). SA‐β‐gal staining was performed according to the manufacturer's instructions for the Sigma‐Aldrich‐QIA117 staining kit (Sigma‐Aldrich). Nuclei were counterstained with Nuclear Fast Red (Sigma‐Aldrich), and images were acquired using a Zeiss AxioCam HRc mounted on a Leitz Laborlux S light microscope. The percentage of senescent cells was determined with QuPath v. 0.3.2 (Bankhead et al. [2017]).
All experiments were performed per the European Community Council Directives of 2010/63/UE. The pilot study (PS) investigated safety and potential senolytic efficacy, and the Extended study (ES) investigated functional changes, pathological phenotype, and the principal organ targeted by K5. Protocols were approved according to current Italian law (D.Lgs. n. 26/2014) by OPBA (animal care and health committee) of IRCCS INRCA and by the General Direction of Animal Health and Veterinary Drugs of the Italian Ministry of Health with authorization n°‐137/2021‐PR for PS and authorization n°‐370/2022‐PR for ES. In the PS of p16‐3MR mice (26 months), bioluminescence associated with p16‐expression was monitored before and after treatment, and the health of the mice was longitudinally studied. The ES used geriatric C57BL/6J mice (31 months). Clinical health and physical performance were analyzed before and after K5 treatment. Subsequently, the animals were euthanized, gross necropsies were performed, and organs were collected for further analysis. Detailed protocols are reported in the extended section.
Blood samples were collected from the right retroorbital plexus. Glucose (GLUC), creatinine (CREA), aspartate aminotransferase (AST/GOT), and alanine aminotransferase (ALT/GPT) were determined in EDTA‐plasma by using an automated analyzer (Cobas Mira, Roche) according to the manufacturer's instructions. Cytokines were measured in EDTA‐plasma using the ProcartaPlex Mouse Cytokine & Chemokine Panel 1, 26plex (Thermofisher) and read in the Luminex 200 instrument (Bio‐Rad), following the producer's recommendation.
Total RNA was extracted from ear biopsies using the RNeasy kit (Qiagen) according to the manufacturer's instructions and quantified by NanoDrop. β‐actin, p‐21, and p‐53 gene expression levels were analyzed on a BioRad iQ5 optical RT‐PCR (BioRad).
Experimental animals' bioluminescence imaging (BLI) was performed with an IVIS Spectrum system (PerkinElmer). Mice were intraperitoneally injected with Xenolight RediJect Coelenterazine h (PerkinElmer), and bioluminescent images were obtained with mice in the dorsal and ventral positions; the Living Image software quantified bioluminescence acquired by the CCD camera.
. To explore the safety of K5 and its potential impact on the aging process, p16-3MR mice were longitudinally studied in this pilot experiment. They were monitored once a month until natural death using a non-invasive protocol designed to assess their clinical health and physical performance across various functional domains associated with frailty. Additionally, to provide an initial overview of K5 effects on senescent cells, non-invasive and exploratory analyses (senescence markers in ear biopsies, p16 expression measured by in vivo bioluminescence assay, and circulating cytokine profile) were performed before the start of the treatment (T0) and after 20 days following the end of K5 administration (T1).
Circulating cytokines assay. Blood samples were collected from the right retroorbital plexus of anesthetized mice. Blood samples were deposited in serum separator gel tubes (Microvette CB300, Sarstedt) and centrifuged (1000 × g, 10 min) for serum separation. Concentrations of glucose (GLUC), creatinine (CREA), aspartate aminotransferase (AST/GOT), and alanine aminotransferase (ALT/GPT) were determined in EDTA-plasma by using an automated analyzer (Cobas Mira, Roche) according to the manufacturer's instructions. […]

Cc1ccccc1-n1c(=O)n(Cc2ccccc2)c(=O)c2[nH]cnc21 [Compound K5, 1-benzyl-3-(2-methylphenyl)-7H-purine-2,6-dione]
median lifespan of treated animals, females (10 mg/kg i.p., p16-3MR mice): 953 ± 35 days
median lifespan of treated animals, males (10 mg/kg i.p., p16-3MR mice): 1097 ± 78 days
adverse reactions, behavioral stereotypes, mortality after administration (10 mg/kg i.p., three injections over three consecutive days): did not induce any adverse reactions
SA-β-gal activity in ear biopsies (T1, 10 mg/kg i.p.): reduction
circulating IL-1β (T1 vs T0, 10 mg/kg i.p.): trend (p < 0.01) toward decreased
circulating IL-6 (T1 vs T0, 10 mg/kg i.p.): reduction
p16 expression by in vivo bioluminescence, ventral and dorsal signals (T1 vs T0, 10 mg/kg i.p.): significant reduction
p21 mRNA expression in ear biopsies (T1 vs T0, 10 mg/kg i.p.): decreasing trend
p53 mRNA expression in ear biopsies (T1 vs T0, 10 mg/kg i.p.): reduction in p53 expression at T1 was statistically significant
